# Experimental data taken from ChEMBL document CHEMBL3885881, “DrugMatrix”.
# Species: Rattus norvegicus
# Assay: DrugMatrix - Regimen: Daily Repeat
# Format: toxicity, organism-based, Sprague-Dawley
# Set-up: regimen Daily Repeat, gender Male, age 6-8 weeks
# Conditions: in vivo, po, route oral GAVAGE, vehicle .5 % CMC; for ABSOLUTE BASOPHIL / ABSOLUTE EOSINOPHIL / ABSOLUTE LYMPHOCYTE / ABSOLUTE MONOCYTE / ABSOLUTE SEGMENTED NEUTROPHIL / BASOPHIL / EOSINOPHIL / ERYTHROCYTE COUNT / HEMATOCRIT / HEMOGLOBIN / LEUKOCYTE COUNT / LYMPHOCYTE / MEAN CORPUSCULAR HEMOGLOBIN / MEAN CORPUSCULAR HEMOGLOBIN CONCENTRATION / MEAN CORPUSCULAR VOLUME / MONOCYTE / NEUTROPHIL / NUCLEATED RED BLOOD CELLS / PLATELET COUNT: tissue Blood; for ALANINE AMINOTRANSFERASE / ALBUMIN / ALKALINE PHOSPHATASE / ASPARTATE AMINOTRANSFERASE / BLOOD UREA NITROGEN / CARBON DIOXIDE / CHLORIDE / CHOLESTEROL / CREATINE PHOSPHOKINASE / CREATININE / GLUCOSE / LACTATE DEHYDROGENASE / LIPASE / PHOSPHORUS / POTASSIUM / SODIUM / TOTAL BILIRUBIN / TOTAL PROTEIN / URIC ACID: tissue Plasma
# [1] = 30 mg/kg, 72 h, dose level Low, time 3 day
# [2] = 30 mg/kg, 120 h, dose level Low, time 5 day
# [3] = 570 mg/kg, 72 h, dose level High, time 3 day
# [4] = 570 mg/kg, 120 h, dose level High, time 5 day
smiles,measurement,setting,value
O=C(O)COc1ccc(C(=O)c2cccs2)c(Cl)c1Cl,ABSOLUTE BASOPHIL,[1],0 CELLS/uL
same,ABSOLUTE EOSINOPHIL,[1],0 CELLS/uL
same,ABSOLUTE LYMPHOCYTE,[1],7024 CELLS/uL
same,ABSOLUTE MONOCYTE,[1],269 CELLS/uL
same,ABSOLUTE SEGMENTED NEUTROPHIL,[1],840.33 CELLS/uL
same,BASOPHIL,[1],0%
same,EOSINOPHIL,[1],0%
same,ERYTHROCYTE COUNT,[1],5.29 x10E6/uL
same,HEMATOCRIT,[1],33.2%
same,HEMOGLOBIN,[1],12.83 G/DL
same,LEUKOCYTE COUNT,[1],8.13 x10E3/uL
same,LYMPHOCYTE,[1],86.33%
same,MEAN CORPUSCULAR HEMOGLOBIN,[1],24.27 pg
same,MEAN CORPUSCULAR HEMOGLOBIN CONCENTRATION,[1],38.67 G/DL
same,MEAN CORPUSCULAR VOLUME,[1],62.8 fL
same,MONOCYTE,[1],3%
same,NEUTROPHIL,[1],10.67%
same,NUCLEATED RED BLOOD CELLS,[1],0.67 /100WBC
same,PLATELET COUNT,[1],1021.33 x10E3/uL
same,ALANINE AMINOTRANSFERASE,[1],60.33 u/L
same,ALBUMIN,[1],4.17 G/DL
same,ALKALINE PHOSPHATASE,[1],394.67 u/L
same,ASPARTATE AMINOTRANSFERASE,[1],94.33 u/L
same,BLOOD UREA NITROGEN,[1],14.67 mg/dL
same,CARBON DIOXIDE,[1],33.67 mmol/L
same,CHLORIDE,[1],99.67 MEQ/L
same,CHOLESTEROL,[1],74 mg/dL
same,CREATINE PHOSPHOKINASE,[1],524.67 u/L
same,CREATININE,[1],0.26 mg/dL
same,GLUCOSE,[1],144.67 mg/dL
same,LACTATE DEHYDROGENASE,[1],159 u/L
same,LIPASE,[1],9.33 u/L
same,PHOSPHORUS,[1],12.93 mg/dL
same,POTASSIUM,[1],6.21 MEQ/L
same,SODIUM,[1],144.4 MEQ/L
same,TOTAL BILIRUBIN,[1],0.17 mg/dL
same,TOTAL PROTEIN,[1],6.2 G/DL
same,URIC ACID,[1],0.5 mg/dL
same,ABSOLUTE BASOPHIL,[2],0 CELLS/uL
same,ABSOLUTE EOSINOPHIL,[2],52.67 CELLS/uL
same,ABSOLUTE LYMPHOCYTE,[2],10475.33 CELLS/uL
same,ABSOLUTE MONOCYTE,[2],92 CELLS/uL
same,ABSOLUTE SEGMENTED NEUTROPHIL,[2],1380 CELLS/uL
same,BASOPHIL,[2],0%
same,EOSINOPHIL,[2],0.33%
same,ERYTHROCYTE COUNT,[2],5.51 x10E6/uL
same,HEMATOCRIT,[2],35.03%
same,HEMOGLOBIN,[2],13.53 G/DL
same,LEUKOCYTE COUNT,[2],12 x10E3/uL
same,LYMPHOCYTE,[2],87.67%
same,MEAN CORPUSCULAR HEMOGLOBIN,[2],24.53 pg
same,MEAN CORPUSCULAR HEMOGLOBIN CONCENTRATION,[2],38.63 G/DL
same,MEAN CORPUSCULAR VOLUME,[2],63.57 fL
same,MONOCYTE,[2],0.67%
same,NEUTROPHIL,[2],11.33%
same,NUCLEATED RED BLOOD CELLS,[2],0 /100WBC
same,PLATELET COUNT,[2],1276 x10E3/uL
same,ALANINE AMINOTRANSFERASE,[2],51 u/L
same,ALBUMIN,[2],4.23 G/DL
same,ALKALINE PHOSPHATASE,[2],420.67 u/L
same,ASPARTATE AMINOTRANSFERASE,[2],78.33 u/L
same,BLOOD UREA NITROGEN,[2],13 mg/dL
same,CARBON DIOXIDE,[2],35.67 mmol/L
same,CHLORIDE,[2],97.33 MEQ/L
same,CHOLESTEROL,[2],80 mg/dL
same,CREATINE PHOSPHOKINASE,[2],446.67 u/L
same,CREATININE,[2],0.27 mg/dL
same,GLUCOSE,[2],136 mg/dL
same,LACTATE DEHYDROGENASE,[2],169.67 u/L
same,LIPASE,[2],8.33 u/L
same,PHOSPHORUS,[2],12.7 mg/dL
same,POTASSIUM,[2],6.46 MEQ/L
same,SODIUM,[2],142.87 MEQ/L
same,TOTAL BILIRUBIN,[2],0.2 mg/dL
same,URIC ACID,[2],0.8 mg/dL
same,ABSOLUTE BASOPHIL,[3],0 CELLS/uL
same,ABSOLUTE EOSINOPHIL,[3],0 CELLS/uL
same,ABSOLUTE LYMPHOCYTE,[3],14484.67 CELLS/uL
same,ABSOLUTE MONOCYTE,[3],271.67 CELLS/uL
same,ABSOLUTE SEGMENTED NEUTROPHIL,[3],1143.67 CELLS/uL
same,BASOPHIL,[3],0%
same,EOSINOPHIL,[3],0%
same,ERYTHROCYTE COUNT,[3],5.25 x10E6/uL
same,HEMATOCRIT,[3],32.4%
same,HEMOGLOBIN,[3],12.33 G/DL
same,LEUKOCYTE COUNT,[3],15.9 x10E3/uL
same,LYMPHOCYTE,[3],91.33%
same,MEAN CORPUSCULAR HEMOGLOBIN,[3],23.47 pg
same,MEAN CORPUSCULAR HEMOGLOBIN CONCENTRATION,[3],38.03 G/DL
same,MEAN CORPUSCULAR VOLUME,[3],61.6 fL
same,MONOCYTE,[3],1.67%
same,NEUTROPHIL,[3],7%
same,NUCLEATED RED BLOOD CELLS,[3],0 /100WBC
same,PLATELET COUNT,[3],1320.33 x10E3/uL
same,ALANINE AMINOTRANSFERASE,[3],61.67 u/L
same,ALBUMIN,[3],4.03 G/DL
same,ALKALINE PHOSPHATASE,[3],478 u/L
same,ASPARTATE AMINOTRANSFERASE,[3],93 u/L
same,BLOOD UREA NITROGEN,[3],14.67 mg/dL
same,CARBON DIOXIDE,[3],35.67 mmol/L
same,CHLORIDE,[3],97 MEQ/L
same,CHOLESTEROL,[3],89.67 mg/dL
same,CREATINE PHOSPHOKINASE,[3],605.33 u/L
same,CREATININE,[3],0.23 mg/dL
same,GLUCOSE,[3],141.33 mg/dL
same,LACTATE DEHYDROGENASE,[3],128 u/L
same,LIPASE,[3],9 u/L
same,PHOSPHORUS,[3],10.17 mg/dL
same,POTASSIUM,[3],5.26 MEQ/L
same,SODIUM,[3],142.77 MEQ/L
same,TOTAL BILIRUBIN,[3],0.2 mg/dL
same,TOTAL PROTEIN,[3],6.27 G/DL
same,URIC ACID,[3],0.47 mg/dL
same,ABSOLUTE BASOPHIL,[4],0 CELLS/uL
same,ABSOLUTE EOSINOPHIL,[4],0 CELLS/uL
same,ABSOLUTE LYMPHOCYTE,[4],19963.33 CELLS/uL
same,ABSOLUTE MONOCYTE,[4],319.33 CELLS/uL
same,ABSOLUTE SEGMENTED NEUTROPHIL,[4],2417.33 CELLS/uL
same,BASOPHIL,[4],0%
same,EOSINOPHIL,[4],0%
same,ERYTHROCYTE COUNT,[4],5.25 x10E6/uL
same,HEMATOCRIT,[4],32.67%
same,HEMOGLOBIN,[4],12.47 G/DL
same,LEUKOCYTE COUNT,[4],22.7 x10E3/uL
same,LYMPHOCYTE,[4],88.33%
same,MEAN CORPUSCULAR HEMOGLOBIN,[4],23.73 pg
same,MEAN CORPUSCULAR HEMOGLOBIN CONCENTRATION,[4],38.17 G/DL
same,MEAN CORPUSCULAR VOLUME,[4],62.33 fL
same,MONOCYTE,[4],1.33%
same,NEUTROPHIL,[4],10.33%
same,NUCLEATED RED BLOOD CELLS,[4],0 /100WBC
same,PLATELET COUNT,[4],1428 x10E3/uL
same,ALANINE AMINOTRANSFERASE,[4],48 u/L
same,ALBUMIN,[4],4.13 G/DL
same,ALKALINE PHOSPHATASE,[4],359.33 u/L
same,ASPARTATE AMINOTRANSFERASE,[4],74 u/L
same,BLOOD UREA NITROGEN,[4],15.67 mg/dL
same,CARBON DIOXIDE,[4],34.33 mmol/L
same,CHLORIDE,[4],100 MEQ/L
same,CHOLESTEROL,[4],70.33 mg/dL
same,CREATINE PHOSPHOKINASE,[4],268.67 u/L
same,CREATININE,[4],0.29 mg/dL
same,GLUCOSE,[4],144 mg/dL
same,LACTATE DEHYDROGENASE,[4],153.33 u/L
same,LIPASE,[4],6.67 u/L
same,PHOSPHORUS,[4],11 mg/dL
same,POTASSIUM,[4],6.13 MEQ/L
same,SODIUM,[4],144.77 MEQ/L
same,TOTAL BILIRUBIN,[4],0.2 mg/dL
same,TOTAL PROTEIN,[4],6.1 G/DL
same,URIC ACID,[4],1.3 mg/dL
